Experimental data reported in article PMC12427625, “Heterochannels Kv(1.1-1.2)2 and Their Interactions with Pore Blockers” (Cells, 2025).
Bridge positions count the residues as written; N and C are the ends. Peptide text beside a SMILES is read from it.

Columns and labels:
[1] = target: T1, human heterochannels Kv(1.1-1.2)2 (Homo sapiens, UniProt P16389+Q09470, S369T/S371T); assay: Competitive binding of peptide and HgTx-G to Kv(1.1-1.2)2 heterochannels; details: for Kd: Kv(1.1-1.2)2 formed by K-Kv1.1-1.2, competitive displacement of 0.5 nM HgTx-G, complete medium, 1 h, Cheng-Prusoff, mean ± SEM of three independent experiments, read-out: apparent dissociation constant (Kap); for affinity for Kv(1.1-1.2)2 in words: Kv(1.1-1.2)2, competitive binding with HgTx-G; for displacement of HgTx-G: 0.5 nM HgTx-G, 10 nM HgTx1 (Figure 1)
T1 construct: expressed in transfected cells; host or cells: mouse neuroblastoma Neuro-2a cells transfected with pmKate2-KCNA1-KCNA2
Source text: To construct the gene encoding a fluorescent concatenated dimer mKate2-Kv1.1-Kv1.2 (K-Kv1.1-1.2), a cloning strategy was used, in which the C-terminus of the human Kv1.1 α-subunit was fused end-to-end to the N-terminus of the human Kv1.2 α-subunit via a short KL linker that corresponds to the HindIII restriction site. Here, we followed the design of the α-subunit concatemers proposed earlier. The previously obtained plasmids pmKate2-KCNA1 and pmKate2-KCNA2, which coded for mKate2-Kv1.1 (K-Kv1.1) and mKate2-Kv1.2 (K-Kv1.2) fusion proteins, were used for cloning. In these proteins, both human α-subunits Kv1.1 and Kv1.2 are N-terminally tagged with the red fluorescent protein mKate2 and harbor single mutations (S369T in Kv1.1, and S371T in Kv1.2) that improve the surface presentation of the homotetrameric channels. At first, pmKate2-KCNA1stopless was generated by amplification of the KCNA1 gene lacking TAA stop codon in a polymerase chain reaction (PCR) using a pair of oligonucleotide primers Kcna1-f1 (5′-[…]-3′) and Kcna1-Stop-r1 (5′-[…]-3′; BglII and HindIII sites are underlined). The obtained DNA fragment was hydrolyzed by BglII/HindIII restriction endonucleases and cloned into pmKate2-KCNA1 plasmid to substitute KCNA1 for KCNA1stopless. The obtained plasmid pmKate2-KCNA1stopless was further used as a vector to produce the KCNA1-KCNA2 dimer. For this, the KCNA2 gene was amplified in PCR using primers Kcna2-Hind-f1 (5′- […]-3′) and Kcna2-Sal-r1 ([…]-3′; HindIII, SalGI, and PstI sites are underlined; TAA stop codon is marked in bold) and cloned into HindIII/SalI sites of pmKate2-KCNA1stopless. The resulting pmKate2-KCNA1-KCNA2 plasmid encoded K-Kv1.1-1.2.
To analyze the binding of HgTx-G to heterochannels, HgTx-G (0.032–2 nM) was added to cells in the complete medium for 1 h. In the experiments with competitive binding, HgTx-G (0.5 nM) was added to cells, together with the studied peptide ([…]; 1.25–100 nM ChTx; 0.5–20 nM AgTx2, 2–10 nM MeKTx11-1, 0.063–1 nM Ce1, 0.063–1 nM Ce4, or 1 µM ScyTx), and incubated in the complete medium for 1 h.
Confocal microscopy measurements were carried out with the SP2 laser scanning confocal microscope (Leica Microsystems GmbH, Wetzlar, Germany), using the 63× water-immersion objective (HCX PL APO, NA = 1.2). Axial and lateral resolutions were 0.6 and 0.2 µm.
Fluorescence of proteins labeled with mKate2 was excited at 561 nm and detected in the 680–800 nm region. Fluorescence of HgTx-G was excited at 488 nm and recorded in the 495–540 nm region. The fluorescent probes of various cellular organelles were excited at 488 nm and detected in the 495–540 nm region.
Quantitative analysis of HgTx-G interaction with heterochannels was performed following the procedure developed previously. Briefly, confocal images of cells were used to calculate the ratio of the fluorescence intensity of HgTx-G bound to heterochannels to the fluorescence intensity of membrane-embedded heterochannels for each measured cell. This ratio was averaged over a sample of measured cells (20–30 cells) to obtain the Rav value and its standard deviation.
To characterize the affinity of unlabeled peptide for heterochannels, the competitive binding of this peptide and HgTx-G to heterochannels was measured at the constant concentration of HgTx-G (L) and increasing concentration (C) of the peptide. Rav data were calculated, plotted as a function of C, and fitted with the following equation:Rav(C) = Rav0/(1 + C/DC50)(2) where DC50 is the peptide concentration displacing 50% of HgTx-G from the complex with heterochannels, and Rav0 is Rav at C = 0.
Further, the Cheng–Prusoff equation was used to calculate the apparent dissociation constant (Kap) of the complex between the studied peptide and heterochannels:Kap = DC50/(1 + L/Kd)(3)
Three independent experiments were performed, and data on Kap were averaged and presented as mean ± SEM.

Kv1.2 [2] = details: cited from earlier work; for Kd: Kv1.2, ref [35], read-out: Kap
Source text: (§1) These properties were also similar to those reported by other investigators for the corresponding homotetrameric channels, Kv1.1 and Kv1.2. It was also shown that the Kd of the complexes between HgTx-G, a high-affinity fluorescent ligand for the Kv1.1 and Kv1.2 channels, and ...

Kv1.1 [3] = details: cited from earlier work; for Kd: Kv1.1, ref [34], read-out: Kap
Source text: as §1

Kv1.2 [4] = assay: Competitive binding, homotetrameric Kv1.2 channel (earlier data); details: Kv1.2 vs Kv1.1 (Table 2)
Kv1.2 [5] = system: Kv1.2; parameters: method as in PMID 9446567; details: HEK-293 cells; ref [14]; cited from earlier work
Kv1.6 = system: Kv1.6; parameters: method as in PMID 9446567; details: HEK-293 cells; ref [14]; cited from earlier work
Kv1.1 [6] = system: Kv1.1; parameters: method as in PMID 9446567; details: HEK-293 cells; ref [14]; cited from earlier work
Kv1.3 = system: Kv1.3; parameters: method as in PMID 9446567; details: HEK-293 cells; ref [14]; cited from earlier work

T1 sequence (Q09470 whole entry S369T): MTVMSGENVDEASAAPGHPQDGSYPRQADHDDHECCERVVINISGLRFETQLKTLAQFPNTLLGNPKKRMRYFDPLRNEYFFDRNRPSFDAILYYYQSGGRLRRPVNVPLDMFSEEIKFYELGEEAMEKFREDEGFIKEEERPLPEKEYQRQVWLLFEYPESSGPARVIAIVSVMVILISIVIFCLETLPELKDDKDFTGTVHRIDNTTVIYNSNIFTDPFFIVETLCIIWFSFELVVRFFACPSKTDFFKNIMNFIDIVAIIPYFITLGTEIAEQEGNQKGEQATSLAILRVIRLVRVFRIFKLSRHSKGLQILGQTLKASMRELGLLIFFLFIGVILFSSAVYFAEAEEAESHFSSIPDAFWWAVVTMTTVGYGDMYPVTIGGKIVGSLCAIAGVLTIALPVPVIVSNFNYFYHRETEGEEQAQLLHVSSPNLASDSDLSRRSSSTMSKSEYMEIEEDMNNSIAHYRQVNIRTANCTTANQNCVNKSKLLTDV
T1 sequence (P16389 2-499 S371T): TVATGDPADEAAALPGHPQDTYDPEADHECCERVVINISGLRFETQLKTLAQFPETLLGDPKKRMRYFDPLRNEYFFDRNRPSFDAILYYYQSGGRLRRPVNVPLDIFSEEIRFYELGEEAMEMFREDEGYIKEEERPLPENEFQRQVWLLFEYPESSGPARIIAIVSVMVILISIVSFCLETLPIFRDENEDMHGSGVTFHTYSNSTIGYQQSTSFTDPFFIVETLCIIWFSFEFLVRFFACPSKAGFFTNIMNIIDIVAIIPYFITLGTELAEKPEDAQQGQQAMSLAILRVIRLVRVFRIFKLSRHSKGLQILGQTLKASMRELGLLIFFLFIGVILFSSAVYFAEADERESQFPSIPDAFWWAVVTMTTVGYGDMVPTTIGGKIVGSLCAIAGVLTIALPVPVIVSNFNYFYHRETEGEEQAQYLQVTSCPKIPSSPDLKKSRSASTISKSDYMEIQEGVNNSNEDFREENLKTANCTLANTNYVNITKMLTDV

SMILES | Kd [1] | Kd (Kv1.2 [2]) | Kd (Kv1.1 [3]) | affinity for Kv(1.1-1.2)2 in words [1] | activity against Kv1.2 compared to Kv1.1 (Kv1.2 [4]) | affinity, 86Rb+ flux inhibition (Kv1.2 [5]) | displacement of HgTx-G from the complexes (Kv1.2 [2]; K-Kv1.2-1.2 and K-Kv1.2, ref [28],[29]) | displacement of HgTx-G from the complexes (Kv1.1 [3]; K-Kv1.1-1.1 and K-Kv1.1, ref [28],[29]) | fold lower activity compared to Ce1 ([1]; Kv(1.1-1.2)2, vs Ce1) | displacement of HgTx-G ([1]; channels formed by K-Kv1.1-1.2) | displacement of HgTx-G ([1]; channels formed by K-Kv1.2-1.1) | affinity, 86Rb+ flux inhibition (Kv1.6) | affinity, 86Rb+ flux inhibition (Kv1.1 [6]) | affinity, 86Rb+ flux inhibition (Kv1.3)
CC[C@H](C)[C@@H]1NC(=O)[C@@H]2CSSC[C@@H]3NC(=O)[C@H](CCCCN)NC(=O)[C@H](CCCNC(=N)N)NC(=O)[C@H](CC(N)=O)NC(=O)[C@H](CCSC)NC(=O)[C@H](CSSC[C@H](NC(=O)[C@H](CO)NC(=O)[C@@H](NC(=O)[C@H](CC(N)=O)NC(=O)[C@@H](NC(=O)[C@@H]4CCCN4C(=O)[C@@H](NC(=O)CN)C(C)C)[C@@H](C)CC)C(C)C)C(=O)N[C@@H]([C@@H](C)O)C(=O)NCC(=O)N[C@@H](CO)C(=O)N4CCC[C@H]4C(=O)N[C@@H](CCC(N)=O)C(=O)N2)NC(=O)[C@H](CCCCN)NC(=O)CNC(=O)[C@H](Cc2ccccc2)NC(=O)[C@H](CCCNC(=N)N)NC(=O)[C@H](CCSC)NC(=O)CNC(=O)[C@H](C)NC(=O)[C@H](CC(=O)O)NC(=O)[C@H](CCCCN)NC(=O)[C@H](CSSC[C@@H](C(=O)N[C@H](C(=O)N2CCC[C@H]2C(=O)N[C@@H](CCCCN)C(=O)O)[C@@H](C)O)NC(=O)[C@H](Cc2c[nH]cn2)NC3=O)NC(=O)[C@@H]2CCCN2C(=O)[C@H](CCCCN)NC1=O [AgTx2, agitoxin 2] | 0.25 ± 0.05 nM |  |  |  |  |  |  |  |  |  |  |  |  | 
CC[C@H](C)[C@H](NC(=O)[C@@H](NC(=O)[C@@H](N)[C@@H](C)O)C(C)C)C(=O)N[C@@H](CC(N)=O)C(=O)N[C@H](C(=O)N[C@@H](CCCCN)C(=O)N[C@H]1CSSC[C@@H]2NC(=O)[C@H](CCCCN)NC(=O)[C@H](C)NC(=O)CNC(=O)[C@H](C)NC(=O)[C@H](Cc3c[nH]cn3)NC(=O)[C@@H]3CCCN3C(=O)CNC(=O)[C@H](Cc3ccc(O)cc3)NC(=O)[C@H](CC(C)C)NC(=O)[C@H](CC(=O)O)NC(=O)[C@H](CCCCN)NC(=O)[C@@H]3CSSC[C@@H](C(=O)N[C@@H](Cc4ccc(O)cc4)C(=O)N[C@@H](CC(N)=O)C(=O)N[C@@H](CC(N)=O)C(=O)O)NC(=O)[C@H](CCCCN)NC(=O)[C@H](CSSC[C@H](NC(=O)[C@H](CCC(N)=O)NC(=O)[C@H](CCCCN)NC(=O)[C@@H]4CCCN4C(=O)[C@H](CO)NC(=O)[C@H]([C@@H](C)O)NC1=O)C(=O)N[C@@H](CC(C)C)C(=O)N[C@@H](CCCCN)C(=O)N1CCC[C@H]1C(=O)N3)NC(=O)[C@H](CCCCN)NC(=O)CNC(=O)[C@H](CC(N)=O)NC(=O)[C@H](CCSC)NC2=O)C(C)C [Ce1] (H-TVINVKCTSPKQCLKPCKDLYGPHAGAKCMNGKCKCYNN-OH; disulfide 7-29, 13-34, 17-36; N-terminus and C-terminus assumed) |  | 0.01 ± 0.002 nM | 11 ± 5 nM | highest picomolar affinity | much higher activity against the Kv1.2 channel than against the Kv1.1 channel |  |  |  |  |  |  |  |  | 
CC[C@H](C)[C@@H]1NC(=O)CNC(=O)[C@H](Cc2ccccc2)NC(=O)[C@H](CCC(N)=O)NC(=O)[C@H](C)NC(=O)[C@H](CCCCN)NC(=O)[C@@H]2CSSC[C@@H](C(=O)N[C@@H](Cc3ccc(O)cc3)C(=O)N3CCC[C@H]3C(=O)N[C@@H](Cc3c[nH]cn3)C(=O)O)NC(=O)[C@H](CCCCN)NC(=O)[C@@H]3CSSC[C@H](NC(=O)[C@H](CCC(N)=O)NC(=O)[C@H](CCCCN)NC(=O)[C@@H]4CCCN4C(=O)[C@H](CO)NC(=O)[C@H]([C@@H](C)O)NC(=O)[C@@H](NC(=O)[C@H](CCCCN)NC(=O)[C@@H](NC(=O)[C@H](CC(=O)O)NC(=O)[C@@H](NC(=O)[C@@H](NC(=O)[C@@H](N)[C@@H](C)O)C(C)C)[C@@H](C)CC)C(C)C)CSSC[C@H](NC(=O)[C@H](CCCCN)NC(=O)[C@H](C)NC(=O)CNC(=O)[C@H](C)NC(=O)[C@H](CCCNC(=N)N)NC1=O)C(=O)N[C@@H](CCSC)C(=O)N[C@@H](CC(N)=O)C(=O)NCC(=O)N[C@@H](CCCCN)C(=O)N3)C(=O)N[C@@H](CC(C)C)C(=O)N1CCC[C@H]1C(=O)N1CCC[C@H]1C(=O)N2 [HgTx1, hongotoxin 1] (H-TVIDVKCTSPKQCLPPCKAQFGIRAGAKCMNGKCKCYPH-OH; disulfide 7-29, 13-34, 17-36; N-terminus and C-terminus assumed) | 0.04 ± 0.01 nM | 0.02 ± 0.01 nM | 0.03 ± 0.02 nM | very high affinity |  | subnanomolar | displaced | displaced | approximately threefold | displaced HgTx-G | displaced HgTx-G | nanomolar | subnanomolar | subnanomolar
